Patent US20050244359A1, “Topical regulation of triglyceride metabolism” (priority 2004, published 2005)
“And” between values parts separate entries of the source, which are not always exact repeats. Equal entries are not always repeated.

Test system: epidermal equivalents
Test: Triglyceride production in living skin samples (epidermal equivalents, MatTek), HPTLC analysis
Type: cell-based
Details: for net intensity (HPTLC, triglycerides): about 0.1 percent fatty acid, epidermal equivalents cultured for three days, triglycerides extracted in chloroform/methanol (2:1)
Method: A set of living skin samples, epidermal equivalents, obtained from MatTek, is tested with a sample of about 0.1 percent palmitoleic acid and about 0.1 percent oleic acid. A media is prepared of a transwell membrane at the air/liquid interface and is cultured for three days. At the end of the incubation period, each skin square is homogenized and its triglycerides extracted in chloroform/methanol (2:1). This is followed by HPTLC analysis. […] After one day of application it is surprising to find the increase in triglyceride concentration in the epidermal equivalents treated with palmitoleic acid. […] The net intensity of oleic acid is 859. In contrast, palmitoleic acid has a net intensity of 1324 and 1212, an average of 1268 net intensity.

Compound | net intensity (HPTLC, triglycerides) | effect on triglyceride production (in words) (epidermal equivalents, HPTLC) | average net intensity (HPTLC, triglycerides) (about 0.1 percent, average of two values) | increase in triglyceride production (about 0.1 percent, epidermal equivalents, HPTLC) [%]
CCCCCCCC/C=C\CCCCCCCC(=O)O [oleic acid, reference compound] | 859 | little effect |  | 
CCCCCC/C=C\CCCCCCCC(=O)O [palmitoleic acid] | 1324 and 1212 | time and dose-dependent increase in triglyceride production | 1268 | ~400
